# Data as given in US20190100534A1, “Cephem Compounds with Latent Reactive Groups” (Gladius Pharmaceuticals, Inc., priority 2017, published 2019).
# Assays:
# Test in all cases: MIC determination, isogenic E. coli strains
# Assay type in all cases: cell-based
# [1] = tested on: Isogenic E. coli J58 strain carrying VIM-2; details: for MIC: Escherichia coli, 18 h, read-out: Mimimum Inhibitory Concentrations, VIM-2
# Experimental: (§1) Sterile technique was used throughout these experiments. Suspensions of organisms were removed from storage (−80° C.) and partially thawed. Partially thawed organisms (1 μL) were inoculated into 3 mL sterile LB Broth in a sterile culture tube and capped, then cultured at 37° C. with shaking for 4-5 hours until the optical density at 600 nm (OD600) was greater than 0.1 on a single beam spectrophotometer.
# (§2) The concentration of organisms was adjusted to 0.08-0.1 OD600 (0.5 McFarland units) by dilution with sterile cation-adjusted Meuller-Hinton (CAMH) broth. The suspensions were used within 30 minutes of preparation.
# (§3) A stock solution was made of each test compound by measuring 6.4 mg of the compound on an analytical balance and dissolving it in DMSO (1 mL) to get a transparent solution. The solutions were stored at −20° C. and thawed prior to use.
# (§4) Sterile CAMH broth (200 μL) containing 20 μM Apo-Transferrin was pipetted into the first row of 8 columns of a sterile, round-bottomed, transparent, 96-well microplate using an 8-channel pipette equipped with sterile tips. One hundred μL was pipetted into the wells of the remaining 11 rows.
# (§5) With an 8-channel pipette equipped with sterile tips, 100 μL of the first row solution was transferred to the second row and mixed. The process was repeated for the second to third rows and continued through row 11. One hundred μL from row 11 was removed and discarded so that all 12 rows contained 100 μL. Row 12 contained no compound and rows 1-11 contained 64, 32, 16, 8, 4, 2, 1, 0.5, 0.25, 0.125, […] of a given compound.
# (§6) Inoculant suspensions (0.5 μL) were added to the 12 wells of each column. The plates were then covered and incubated at 37° C. overnight for 18 hours.
# (§7) For each organism the MIC was determined by identifying the transparent well with the lowest test compound concentration.
# VIM-2 (Group 3a carbapenemase, metallo-beta-lactamase); and
# (§8) The gene sequence for each beta-lactamase enzyme was synthesized and inserted into the pBC-SK(+) plasmid by GenScript, a commercial service. E. coli J53 was transformed with each plasmid via electroporation and resistant transformants were selected on agar plates containing 50 micrograms/mL ampicillin. The selected transformants were stored at −80 degrees C. in 20% glycerol.
# [2] = tested on: Isogenic E. coli J58 strain carrying TEM-26; details: for MIC: Escherichia coli, 18 h, read-out: Mimimum Inhibitory Concentrations, TEM-26
# Experimental: as §1, §2, §3, §4, §5, §6, §7
# TEM-26 (Group 2be beta-lactamase, hydrolyzes extended spectrum cephalosporins and monobactams), [25];
# as §8
# [3] = tested on: Isogenic E. coli J58 strain carrying IMP-1; details: for MIC: Escherichia coli, 18 h, read-out: Mimimum Inhibitory Concentrations, IMP-1
# Experimental: as §1, §2, §3, §4, §5, §6, §7
# IMP-1 (Group 3a carbapenemase, metallo-beta-Lactamase).
# as §8
# [4] = tested on: Isogenic E. coli J58 strain carrying NDM-1; details: for MIC: Escherichia coli, 18 h, read-out: Mimimum Inhibitory Concentrations, NDM-1
# Experimental: as §1, §2, §3, §4, §5, §6, §7
# NDM-1 (Group 3a carbapenemase, broad spectrum divalent Zn^++ metallo-Beta-Lactamase);
# as §8
# [5] = tested on: Isogenic E. coli J58 strain carrying CTX-M-14; details: for MIC: Escherichia coli, 18 h, read-out: Mimimum Inhibitory Concentrations, CTX-M-14
# Experimental: as §1, §2, §3, §4, §5, §6, §7
# (§9) CTX-M-14 and CTX-M-15 (Class A, Group 2be beta-lactamases, hydrolyzes extended spectrum cephalosporins and monobactams);
# as §8
# [6] = tested on: Isogenic E. coli J58 strain carrying CTX-M-15; details: for MIC: Escherichia coli, 18 h, read-out: Mimimum Inhibitory Concentrations, CTX-M-15
# Experimental: as §1, §2, §3, §4, §5, §6, §7, §9, §8
# [7] = tested on: Isogenic E. coli J58 strain carrying KPC-2; details: for MIC: Escherichia coli, 18 h, read-out: Mimimum Inhibitory Concentrations, KPC-2
# Experimental: as §1, §2, §3, §4, §5, §6, §7
# (§10) KPC-2 and KPC-3 (Class A, Group 2f, carbapenemases);
# as §8
# [8] = tested on: Isogenic E. coli J58 strain carrying KPC-3; details: for MIC: Escherichia coli, 18 h, read-out: Mimimum Inhibitory Concentrations, KPC-3
# Experimental: as §1, §2, §3, §4, §5, §6, §7, §10, §8
# [9] = tested on: Isogenic E. coli J58 strain carrying SHV-1; details: for MIC: Escherichia coli, 18 h, read-out: Mimimum Inhibitory Concentrations, SHV-1
# Experimental: as §1, §2, §3, §4, §5, §6, §7
# SHV-1 (Class A, Group 2b beta-lactamase, hydrolyzes penicillins and early cephalosporins);
# as §8
# [10] = tested on: Isogenic E. coli J58 strain carrying DHA-1; details: for MIC: Escherichia coli, 18 h, read-out: Mimimum Inhibitory Concentrations, DHA-1
# Experimental: as §1, §2, §3, §4, §5, §6, §7, §8
# [11] = tested on: E. coli J53 Alone; details: for Mimimum Inhibitory Concentrations, J53 Alone: CAMH broth, 20 μM Apo-Transferrin, 37° C., 18 hours; for MIC: Escherichia coli, J53ALONE, 18 h, read-out: Mimimum Inhibitory Concentrations, J53 Alone
# Experimental: as §1, §2, §3, §4, §5, §6, §7, §8
Structure (SMILES),"Mimimum Inhibitory Concentrations, J53 Alone ([11]; Table 4-2)",MIC [1],MIC [2],MIC [3],MIC [4],MIC [5],MIC [6],MIC [7],MIC [8],MIC [9],MIC [10],MIC [11],other results
"CC(C)(O/N=C(\C(=O)N[C@@H]1C(=O)N2C(C(=O)O)=C(C=Cc3ccc(C[N+]4(C5CCC5)CCc5ccc(O)c(O)c5C4)cc3)CS[C@H]12)c1csc(N)n1)C(=O)O (mixture of isomers) [Compound 444, 2-(4-((E/Z)-2-((6R,7R)-7-((Z)-2-(2-aminothiazol-4-yl)-2-(((2-carboxypropan-2-yl)oxy)imino)acetamido)-2-carboxy-8-oxo-5-thia-1-azabicyclo[4.2.0]oct-2-en-3-yl)vinyl)benzyl)-2-cyclobutyl-7,8-dihydroxy-1,2,3,4-tetrahydroisoquinolin-2-ium]",0.5 microgram/mL,–,–,–,–,–,–,–,–,–,–,–,"Mimimum Inhibitory Concentrations, VIM-2 ([1]; isogenic E. coli strain, VIM-2, CAMH broth, 20 μM Apo-Transferrin, 37° C., 18 hours): 0.5 microgram/mL; Mimimum Inhibitory Concentrations, TEM-26 ([2]; isogenic E. coli strain, TEM-26, CAMH broth, 20 μM Apo-Transferrin, 37° C., 18 hours): 0.25 microgram/mL; Mimimum Inhibitory Concentrations, IMP-1 ([3]; isogenic E. coli strain, IMP-1, CAMH broth, 20 μM Apo-Transferrin, 37° C., 18 hours): 0.5 microgram/mL; Mimimum Inhibitory Concentrations, NDM-1 ([4]; isogenic E. coli strain, NDM-1, CAMH broth, 20 μM Apo-Transferrin, 37° C., 18 hours): 32 microgram/mL; MICs for an E. coli strain carrying the gene for NDM-1, in words ([4]; review of Tables 4-1 and 4-2): lower MICS compared to other compounds tested; Mimimum Inhibitory Concentrations, CTX-M-14 ([5]; isogenic E. coli strain, CTX-M-14, CAMH broth, 20 μM Apo-Transferrin, 37° C., 18 hours): 0.25 microgram/mL; Mimimum Inhibitory Concentrations, CTX-M-15 ([6]; isogenic E. coli strain, CTX-M-15, CAMH broth, 20 μM Apo-Transferrin, 37° C., 18 hours): 1 microgram/mL; Mimimum Inhibitory Concentrations, KPC-2 ([7]; isogenic E. coli strain, KPC-2, CAMH broth, 20 μM Apo-Transferrin, 37° C., 18 hours): 8 microgram/mL; Mimimum Inhibitory Concentrations, KPC-3 ([8]; isogenic E. coli strain, KPC-3, CAMH broth, 20 μM Apo-Transferrin, 37° C., 18 hours): 2 microgram/mL; Mimimum Inhibitory Concentrations, SHV-1 ([9]; isogenic E. coli strain, SHV-1, CAMH broth, 20 μM Apo-Transferrin, 37° C., 18 hours): 1 microgram/mL; Mimimum Inhibitory Concentrations, DHA-1 ([10]; isogenic E. coli strain, DHA-1, CAMH broth, 20 μM Apo-Transferrin, 37° C., 18 hours): 1 microgram/mL; Mimimum Inhibitory Concentrations, J53 Alone ([11]; Table 4-1): 0.5 microgram/mL"
"CC(C)(O/N=C(\C(=O)N[C@@H]1C(=O)N2C(C(=O)O)=C(/C=C/c3ccc(C[n+]4ccn(-c5ccc(O)c(O)c5)c4)cc3)CS[C@H]12)c1csc(N)n1)C(=O)O [Compound 414, 3-(4-((E)-2-((6R,7R)-7-((Z)-2-(2-aminothiazol-4-yl)-2-(((2-carboxypropan-2-yl)oxy)imino)acetamido)-2-carboxy-8-oxo-5-thia-1-azabicyclo[4.2.0]oct-2-en-3-yl)vinyl)benzyl)-1-(3,4-dihydroxyphenyl)-1H-imidazol-3-ium]",0.25 microgram/mL,1 µg/mL,1 µg/mL,8 µg/mL,> 64 µg/mL,2 µg/mL,1 µg/mL,8 µg/mL,4 µg/mL,1 µg/mL,0.5 µg/mL,0.25 µg/mL,–
"Cn1c[n+](Cc2ccc(C=CC3=C(C(=O)O)N4C(=O)[C@@H](NC(=O)/C(=N\OC(C)(C)C(=O)O)c5csc(N)n5)[C@H]4SC3)cc2)c2cc(O)c(O)cc21 (mixture of isomers) [Compound 415, 3-(4-((E/Z)-2-((6R,7R)-7-((Z)-2-(2-aminothiazol-4-yl)-2-(((2-carboxypropan-2-yl)oxy)imino)acetamido)-2-carboxy-8-oxo-5-thia-1-azabicyclo[4.2.0]oct-2-en-3-yl)vinyl)benzyl)-5,6-dihydroxy-1-methyl-1H-benzo[d]imidazol-3-ium]",0.5 microgram/mL,1 µg/mL,1 µg/mL,16 µg/mL,> 64 µg/mL,2 µg/mL,1 µg/mL,16 µg/mL,8 µg/mL,1 µg/mL,0.5 µg/mL,0.5 µg/mL,–
"CC(C)(O/N=C(\C(=O)N[C@@H]1C(=O)N2C(C(=O)O)=C(C=Cc3ccc(C[N+]4(C)CCc5cc(O)c(O)cc5C4)cc3[N+](=O)[O-])CS[C@H]12)c1csc(N)n1)C(=O)O (mixture of isomers) [Compound 445, 2-(4-((E/Z)-2-((6R,7R)-7-((Z)-2-(2-aminothiazol-4-yl)-2-(((2-carboxypropan-2-yl)oxy)imino)acetamido)-2-carboxy-8-oxo-5-thia-1-azabicyclo[4.2.0]oct-2-en-3-yl)vinyl)-3-nitrobenzyl)-6,7-dihydroxy-2-methyl-1,2,3,4-tetrahydroisoquinolin-2-ium]",1 microgram/mL,0.25 µg/mL,1 µg/mL,1 µg/mL,> 64 µg/mL,4 µg/mL,4 µg/mL,64 µg/mL,16 µg/mL,1 µg/mL,1 µg/mL,1 µg/mL,–
